#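 Where inhibition never reached the appropriate level, the endpoint shown equals the highest concentration tested. Otherwise, values were interpolated linearly from a five-concentration, 48-hour dose response in 96-well plates. GI50 marks 50% less growth. The concentration for full growth arrest is given as TGI.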
# Key:
# Test in all cases: DTP human tumour cell line panel, 48 h
# CCRF-CEM leukemia = test system: CCRF-CEM leukemia
# LOX IMVI melanoma = test system: LOX IMVI melanoma
# ACHN renal = test system: ACHN renal
# TK-10 renal = test system: TK-10 renal
# HOP-92 NSCLC = test system: HOP-92 NSCLC
# SK-OV-3 ovarian = test system: SK-OV-3 ovarian
# KM12 colon = test system: KM12 colon
# SF-268 CNS = test system: SF-268 CNS
# BT-549 breast = test system: BT-549 breast
# SF-539 CNS = test system: SF-539 CNS
# RPMI-8226 leukemia = test system: RPMI-8226 leukemia
# COLO 205 colon = test system: COLO 205 colon
# HCC-2998 colon = test system: HCC-2998 colon
# HS 578T breast = test system: HS 578T breast
# HT29 colon = test system: HT29 colon
# PC-3 prostate = test system: PC-3 prostate
# NCI-H226 lung = test system: NCI-H226 lung
# MDA-MB-231 breast = test system: MDA-MB-231 breast
# HL-60(TB) leukemia = test system: HL-60(TB) leukemia
# OVCAR-4 ovarian = test system: OVCAR-4 ovarian
# NCI/ADR-RES ovarian = test system: NCI/ADR-RES ovarian
# SF-295 CNS = test system: SF-295 CNS
# T-47D breast = test system: T-47D breast
# UACC-62 melanoma = test system: UACC-62 melanoma
# SK-MEL-5 melanoma = test system: SK-MEL-5 melanoma
# SR leukemia = test system: SR leukemia
# NCI-H23 lung = test system: NCI-H23 lung
# MDA-MB-435 = test system: MDA-MB-435
# A498 renal = test system: A498 renal
# SW-620 colon = test system: SW-620 colon
# MOLT-4 leukemia = test system: MOLT-4 leukemia
# OVCAR-8 ovarian = test system: OVCAR-8 ovarian
# 786-0 renal = test system: 786-0 renal
# MCF7 breast = test system: MCF7 breast
# UACC-257 melanoma = test system: UACC-257 melanoma
# MALME-3M melanoma = test system: MALME-3M melanoma
# NCI-H522 lung = test system: NCI-H522 lung
# SK-MEL-28 melanoma = test system: SK-MEL-28 melanoma
# HCT-116 colon = test system: HCT-116 colon
# SK-MEL-2 melanoma = test system: SK-MEL-2 melanoma
# OVCAR-5 ovarian = test system: OVCAR-5 ovarian
# M14 melanoma = test system: M14 melanoma
# SNB-19 CNS = test system: SNB-19 CNS
# IGROV1 ovarian = test system: IGROV1 ovarian
# OVCAR-3 ovarian = test system: OVCAR-3 ovarian
# NCI-H460 lung = test system: NCI-H460 lung
# SNB-75 CNS = test system: SNB-75 CNS
# CAKI-1 renal = test system: CAKI-1 renal
# K-562 leukemia = test system: K-562 leukemia
# A549 NSCLC = test system: A549 NSCLC
# SN12C renal = test system: SN12C renal
# HCT-15 colon = test system: HCT-15 colon
# DU-145 prostate = test system: DU-145 prostate
# UO-31 renal = test system: UO-31 renal
# HOP-62 NSCLC = test system: HOP-62 NSCLC
smiles,measurement,setting,value
O=C(NCCCN1CCC(N2CCCCC2)CC1)C1=Cc2cc(Br)ccc2OC1,GI50,CCRF-CEM leukemia,4.24 µM
same,TGI,CCRF-CEM leukemia,20.2 µM
same,GI50,LOX IMVI melanoma,2.59 µM
same,TGI,LOX IMVI melanoma,5.73 µM
same,GI50,ACHN renal,10.2 µM
same,TGI,ACHN renal,27 µM
same,GI50,TK-10 renal,14.3 µM
same,TGI,TK-10 renal,27.7 µM
same,GI50,HOP-92 NSCLC,3.68 µM
same,TGI,HOP-92 NSCLC,19.8 µM
same,GI50,SK-OV-3 ovarian,16.2 µM
same,TGI,SK-OV-3 ovarian,30.9 µM
same,GI50,KM12 colon,13.7 µM
same,TGI,KM12 colon,27.8 µM
same,GI50,SF-268 CNS,3.51 µM
same,TGI,SF-268 CNS,13 µM
same,GI50,BT-549 breast,13.9 µM
same,TGI,BT-549 breast,33 µM
same,GI50,SF-539 CNS,2.09 µM
same,TGI,SF-539 CNS,5.04 µM
same,GI50,RPMI-8226 leukemia,4.54 µM
same,TGI,RPMI-8226 leukemia,22.4 µM
same,GI50,COLO 205 colon,2.16 µM
same,TGI,COLO 205 colon,4.29 µM
same,GI50,HCC-2998 colon,13.5 µM
same,TGI,HCC-2998 colon,27.2 µM
same,GI50,HS 578T breast,12.2 µM
same,TGI,HS 578T breast,33.4 µM
same,GI50,HT29 colon,3.21 µM
same,TGI,HT29 colon,12.5 µM
same,GI50,PC-3 prostate,11.7 µM
same,TGI,PC-3 prostate,26.8 µM
same,GI50,NCI-H226 lung,16.9 µM
same,TGI,NCI-H226 lung,34.5 µM
same,GI50,MDA-MB-231 breast,3.62 µM
same,TGI,MDA-MB-231 breast,13.8 µM
same,GI50,HL-60(TB) leukemia,4.94 µM
same,TGI,HL-60(TB) leukemia,19.3 µM
same,GI50,OVCAR-4 ovarian,10 µM
same,TGI,OVCAR-4 ovarian,32 µM
same,GI50,NCI/ADR-RES ovarian,19.1 µM
same,TGI,NCI/ADR-RES ovarian,52.2 µM
same,GI50,SF-295 CNS,8.58 µM
same,TGI,SF-295 CNS,24.8 µM
same,GI50,T-47D breast,2.04 µM
same,TGI,T-47D breast,4.98 µM
same,GI50,UACC-62 melanoma,1.83 µM
same,TGI,UACC-62 melanoma,3.49 µM
same,GI50,SK-MEL-5 melanoma,1.89 µM
same,TGI,SK-MEL-5 melanoma,3.61 µM
same,GI50,SR leukemia,2.5 µM
same,TGI,SR leukemia,6.15 µM
same,GI50,NCI-H23 lung,16.9 µM
same,TGI,NCI-H23 lung,36.2 µM
same,GI50,MDA-MB-435,1.69 µM
same,TGI,MDA-MB-435,3.55 µM
same,GI50,A498 renal,3.88 µM
same,TGI,A498 renal,18.7 µM
same,GI50,SW-620 colon,5.16 µM
same,TGI,SW-620 colon,19 µM
same,GI50,MOLT-4 leukemia,7.41 µM
same,TGI,MOLT-4 leukemia,26.3 µM
same,GI50,OVCAR-8 ovarian,4.82 µM
same,TGI,OVCAR-8 ovarian,26.9 µM
same,GI50,786-0 renal,11.2 µM
same,TGI,786-0 renal,25.8 µM
same,GI50,MCF7 breast,4.45 µM
same,TGI,MCF7 breast,17.1 µM
same,GI50,UACC-257 melanoma,1.9 µM
same,TGI,UACC-257 melanoma,3.89 µM
same,GI50,MALME-3M melanoma,2.11 µM
same,TGI,MALME-3M melanoma,3.89 µM
same,GI50,NCI-H522 lung,2.32 µM
same,TGI,NCI-H522 lung,6.12 µM
same,GI50,SK-MEL-28 melanoma,1.83 µM
same,TGI,SK-MEL-28 melanoma,3.54 µM
same,GI50,HCT-116 colon,5.29 µM
same,TGI,HCT-116 colon,21.8 µM
same,GI50,SK-MEL-2 melanoma,8.14 µM
same,TGI,SK-MEL-2 melanoma,22.1 µM
same,GI50,OVCAR-5 ovarian,19.9 µM
same,TGI,OVCAR-5 ovarian,70.2 µM
same,GI50,M14 melanoma,2.22 µM
same,TGI,M14 melanoma,4.71 µM
same,GI50,SNB-19 CNS,14.2 µM
same,TGI,SNB-19 CNS,31.3 µM
same,GI50,IGROV1 ovarian,15.9 µM
same,TGI,IGROV1 ovarian,39.4 µM
same,GI50,OVCAR-3 ovarian,12.3 µM
same,TGI,OVCAR-3 ovarian,26.8 µM
same,GI50,NCI-H460 lung,8.43 µM
same,TGI,NCI-H460 lung,23.6 µM
same,GI50,SNB-75 CNS,10.9 µM
same,TGI,SNB-75 CNS,23.3 µM
same,GI50,CAKI-1 renal,2.46 µM
same,TGI,CAKI-1 renal,6.09 µM
same,GI50,K-562 leukemia,1.98 µM
same,TGI,K-562 leukemia,4.63 µM
same,GI50,A549 NSCLC,5.66 µM
same,TGI,A549 NSCLC,20.1 µM
same,GI50,SN12C renal,10.4 µM
same,TGI,SN12C renal,24.1 µM
same,GI50,HCT-15 colon,3.47 µM
same,TGI,HCT-15 colon,17.1 µM
same,GI50,DU-145 prostate,15.5 µM
same,TGI,DU-145 prostate,30.4 µM
same,GI50,UO-31 renal,6.71 µM
same,TGI,UO-31 renal,20.4 µM
same,GI50,HOP-62 NSCLC,13.8 µM
same,TGI,HOP-62 NSCLC,27.2 µM

# Reference: PubChem BioAssay (NCI)
